The term IC50 denotes the concentration that gives 50% inhibition.

T1 sequence (O14744 with tags, fused parts or gaps): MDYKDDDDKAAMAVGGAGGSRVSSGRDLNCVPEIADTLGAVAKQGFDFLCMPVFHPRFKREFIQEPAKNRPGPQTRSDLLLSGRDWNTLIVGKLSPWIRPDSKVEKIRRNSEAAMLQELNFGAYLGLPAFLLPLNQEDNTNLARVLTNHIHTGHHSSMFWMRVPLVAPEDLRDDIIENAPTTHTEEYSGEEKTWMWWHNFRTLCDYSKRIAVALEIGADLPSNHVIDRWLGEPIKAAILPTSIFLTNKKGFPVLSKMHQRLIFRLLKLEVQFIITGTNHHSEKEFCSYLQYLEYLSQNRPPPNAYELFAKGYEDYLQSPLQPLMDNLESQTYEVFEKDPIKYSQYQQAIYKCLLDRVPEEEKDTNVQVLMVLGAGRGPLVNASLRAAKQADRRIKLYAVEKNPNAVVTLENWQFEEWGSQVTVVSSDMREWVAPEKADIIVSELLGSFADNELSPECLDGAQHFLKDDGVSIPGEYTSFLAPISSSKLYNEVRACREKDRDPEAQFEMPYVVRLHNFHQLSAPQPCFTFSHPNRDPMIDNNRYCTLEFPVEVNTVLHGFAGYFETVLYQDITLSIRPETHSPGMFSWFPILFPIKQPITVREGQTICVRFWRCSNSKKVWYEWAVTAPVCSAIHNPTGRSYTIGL
T1 sequence (Q9BQA1 with tags, fused parts or gaps partner): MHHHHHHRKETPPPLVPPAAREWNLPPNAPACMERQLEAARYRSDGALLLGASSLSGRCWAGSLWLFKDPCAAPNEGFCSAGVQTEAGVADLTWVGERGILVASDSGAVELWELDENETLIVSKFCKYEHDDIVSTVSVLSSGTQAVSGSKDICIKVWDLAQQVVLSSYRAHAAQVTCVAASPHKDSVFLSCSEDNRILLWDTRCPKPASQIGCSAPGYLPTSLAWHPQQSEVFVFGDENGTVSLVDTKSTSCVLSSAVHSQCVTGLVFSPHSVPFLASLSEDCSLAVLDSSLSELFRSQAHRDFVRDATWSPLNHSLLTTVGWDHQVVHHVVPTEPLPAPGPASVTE

This assay addresses T1, PRMT5/MEP50 (Homo sapiens, UniProt O14744).
T1 construct: Flag-PRMT5; 6His-MEP50
Nature of the assay: PRMT5 Biochemical Assay (PRMT5/MEP50 enzyme assay on peptide substrate, 3H-SAM Flashplate). An excerpt: General Materials. S-adenosylmethionine (SAM), S-adenosylhomocysteine (SAH), bicine, KCl, Tween20, dimethylsulfoxide (DMSO), bovine skin gelatin (BSG), and Tris(2-carboxyethyl)phosphine hydrochloride solution (TCEP) were purchased from Sigma-Aldrich at the highest level of purity possible. ^3H-SAM was purchase from American Radiolabeled Chemicals with a specific activity of 80 Ci/mmol. 384-well streptavidin Flashplates were purchased from PerkinElmer.
Substrates. Peptide representative of human histone H4 residues 1-15 was synthesized with a C-terminal linker-affinity tag motif and a C-terminal amide cap by 21st Century Biochemicals. The peptide was high high-perfomance liquid chromatography (HPLC) purified to greater than 95% purity and confirmed by liquid chromatography mass spectrometry (LC-MS). The sequence was Ac-[…][K-Biot]-amide (SEQ ID NO.:3).
Molecular Biology: Full-length human PRMT5 (NM_006109.3) transcript variant 1 clone was amplified from a fetal brain cDNA library, incorporating flanking 5′ sequence encoding a FLAG tag ([…]) (SEQ ID NO.:4) fused directly to Ala 2 of PRMT5. Full-length human MEP50 (NM_024102) clone was amplified from a human testis cDNA library incorporating a 5′ sequence encoding a 6-histidine tag (MHHHHHH) (SEQ ID NO.:5) fused directly to Arg 2 of MEP50. The amplified genes were sublconed into pENTR/D/TEV (Life Technologies) and subsequently transferred by Gateway™ attL×attR recombination to pDEST8 baculvirus expression vector (Life Technologies).
Protein Expression. Recombinant baculovirus and Baculovirus-Infected Insect Cells (BIIC) were generated according to Bac-to-Bac kit instructions (Life Technologies) and Wasilko, 2006, respectively. Protein over-expression was accomplished by infecting exponentially growing Spodoptera frugiperda (SF9) cell culture at 1.2×10^6cell/ml with a 5000 fold dilution of BIIC stock. Infections were carried out at 27° C. for 72 hours, harvested by centrifugation, and stored at −80° C. for purification.
Protein Purification. […] Flag-PRMT5/6His-MeP50 was eluted with 300 mM Imidazole in the same buffer. The purity of recovered protein was 87%. Reference: Wasilko, D. J. and S. E. Lee: “TIPS: titerless infected-cells preservation and scale-up” Bioprocess J., 5 (2006), pp. 29-32.
General Procedure for PRMT5/MEP50 Enzyme Assays on Peptide Substrates. The assays were all performed in a buffer consisting of 20 mM Bicine (pH=7.6), 1 mM TCEP, 0.005% BSG, and 0.002% Tween20, prepared on the day of use. Compounds in 100% DMSO (1 ul) were spotted into a polypropylene 384-well V-bottom plates (Greiner) using a Platemate Plus outfitted with a 384-channel head (Thermo Scientific). DMSO (1 ul) was added to Columns 11, 12, 23, 24, rows A-H for the maximum signal control and 1 ul of SAH, a known product and inhibitor of PRMT5/MEP50, was added to columns 11, 12, 23, 24, rows I-P for the minimum signal control. A cocktail (40 ul) containing the PRMT5/MEP50 enzyme and the peptide was added by Multidrop Combi (Thermo-Fisher). The compounds were allowed to incubate with PRMT5/MEP50 for 30 min at 25 degrees Celsius, then a cocktail (10 ul) containing ^3H-SAM was added to initiate the reaction (final volume=51 ul). The final concentrations of the components were as follows: PRMT5/MEP50 was 4 nM, ^3H-SAM was 75 nM, peptide was 40 nM, SAH in the minimum signal control wells was 100 uM, and the DMSO concentration was […]. The assays were stopped by the addition of non-radioactive SAM (10 ul) to a final concentration of 600 uM, which dilutes the ^3H-SAM to a level where its incorporation into the peptide substrate is no longer detectable. 50 ul of the reaction in the 384-well polypropylene plate was then transferred to a 384-well Flashplate and the biotinylated peptides were allowed to bind to the streptavidin surface for at least 1 hour before being washed three times with 0.1% Tween20 in a Biotek ELx405 plate washer. […]
As for `CC(C)n1ccc(-c2ccc(OCC(O)CN3CCc4ccccc4C3)cc2)n1` (stereo not shown) [Compound 27], the 50% inhibitory concentration (IC50) was in the range of 1000 to 10000 nM. To `CN(Cc1ccc(OCC(O)CN2CCc3ccccc3C2)cc1)C1CCCC1` (stereo not shown) [Compound 24] belongs 1000 to 10000 nM; to `CN(C(=O)c1cccnc1)c1cccc(OCC(O)CN2CCc3ccccc3C2)c1` (stereo not shown) [Compound 204], 1000 to 10000 nM; to `Cn1ncc2ccc(-c3cc(NCC(O)CN4CCc5ccccc5C4)ncn3)cc21` (stereo not shown) [Compound 205], 101 to 1000 nM.

For `OC(COc1cccc(-c2ccc3ncoc3c2)c1)CN1CCc2ccccc2C1` (stereo not shown) [Compound 188], the concentration for half-maximal inhibition (IC50) lay within 101 to 1000 nM. With `Cc1ccncc1-c1cccc(OCC(O)CN2CCc3ccccc3C2)c1` (stereo not shown) [Compound 113, 1-(3,4-dihydroisoquinolin-2(1H)-yl)-3-(3-(4-methylpyridin-3-yl)phenoxy)propan-2-ol] the figure was 101 to 1000 nM; with `Cn1cnc2cnc(-c3cccc(OCC(O)CN4CCc5ccccc5C4)c3)nc21` (stereo not shown) [Compound 191], 101 to 1000 nM. For the molecule `OC(COc1cccc(CNC2CCCCC2)c1)CN1CCc2ccccc2C1` (stereo not shown) [Compound 4], the concentration for half-maximal inhibition (IC50) lay within 101 to 1000 nM. With `OC(COc1cccc(-c2ccc(F)cc2)c1)CN1CCc2ccccc2C1` (stereo not shown) [Compound 77], the half-inhibitory concentration (IC50) fell in the range of 1000 to 10000 nM. For `CS(=O)(=O)Nc1ccc(-c2cccc(OCC(O)CN3CCc4ccccc4C3)c2)cc1` (stereo not shown) [Compound 129], the IC50 lay in the range of 101 to 1000 nM. Turning to `OC(COc1cccc(-c2ccc3nc[nH]c3c2)c1)CN1CCc2ccccc2C1` (stereo not shown) [Compound 83], the half-maximal inhibitory concentration (IC50) was 101 to 1000 nM. To `O=c1[nH]c2ccc(-c3cccc(OCC(O)CN4CCc5ccccc5C4)c3)cc2[nH]1` (stereo not shown) [Compound 109, 5-(3-(3-(3,4-dihydroisoquinolin-2(1H)-yl)-2-hydroxypropoxy)phenyl)-1H-benzo[d]imidazol-2(3H)-one] belongs 101 to 1000 nM. As to `CC1Cc2ccccc2CN1CC(O)COc1cccc(-c2ccc3ncn(C)c3c2)c1` (stereo not shown) [Compound 122], the concentration for half-maximal inhibition (IC50) was in the range of 1000 to 10000 nM. As to `N#Cc1cccc(-c2cccc(OCC(O)CN3CCc4ccccc4C3)c2)c1` (stereo not shown) [Compound 172], the IC50 fell in the range of 101 to 1000 nM.

Regarding `OCc1ccc(-c2cccc(OCC(O)CN3CCc4ccccc4C3)c2)cc1` (stereo not shown) [Compound 73], the half-inhibitory concentration (IC50) lay in the range of 1000 to 10000 nM.

For `OC(COc1cccc(-c2ccc(C(F)(F)F)cc2C(F)(F)F)c1)CN1CCc2ccccc2C1` (stereo not shown) [Compound 124], the IC50 lay in the range of 101 to 1000 nM. As for `OC(COc1ccc(C2CCNCC2)cc1)CN1CCc2ccccc2C1` (stereo not shown) [Compound 25], the half-maximal inhibitory concentration (IC50) fell in the range of 1000 to 10000 nM.

Consider `CC(=O)Nc1cccc(-c2cccc(OCC(O)CN3CCc4ccccc4C3)c2)c1` (stereo not shown) [Compound 169], for which the half-inhibitory concentration (IC50) lay in the range of 101 to 1000 nM.

On to `OC(COc1cccc(-c2ccc3ncn(-c4ccccc4)c3c2)c1)CN1CCc2ccccc2C1` (stereo not shown) [Compound 104, 1-(3,4-dihydroisoquinolin-2(1H)-yl)-3-(3-(1-phenyl-1H-benzo[d]imidazol-6-yl)phenoxy)propan-2-ol], for which the half-inhibitory concentration (IC50) lay within 101 to 1000 nM. As for `CN(C(=O)c1cnco1)c1cccc(OCC(O)CN2CCc3ccccc3C2)c1` (stereo not shown) [Compound 196], the 50% inhibitory concentration (IC50) was in the range of 1000 to 10000 nM.

Turning to `Cn1cncc1C(=O)Nc1cccc(OCC(O)CN2CCc3ccccc3C2)c1` (stereo not shown) [Compound 195], the IC50 lay within 1000 to 10000 nM. To `CC(Oc1cccc(CNC2CCCC2)c1)C(O)CN1CCc2ccccc2C1` (stereo not shown) [Compound 49] belongs 101 to 1000 nM; to `Oc1ccc(-c2cccc(OCC(O)CN3CCc4ccccc4C3)c2)cc1` (stereo not shown) [Compound 96], 1000 to 10000 nM. As for `OC(COC1Cc2ccccc2C1)CN1CCc2ccccc2C1` (stereo not shown) [Compound 301], the IC50 was 1000 to 10000 nM.

Take `OC(COc1cccc(-c2cccc(Oc3ccccc3)c2)c1)CN1CCc2ccccc2C1` (stereo not shown) [Compound 55]: the IC50 fell in the range of 1000 to 10000 nM. Regarding `OC(COc1cccc(-c2cccc(C(F)(F)F)c2)c1)CN1CCc2ccccc2C1` (stereo not shown) [Compound 87], the IC50 was 1000 to 10000 nM. With `CC(C)(C)OC(=O)N1CCC(OCC(O)CN2CCc3ccccc3C2)CC1` (stereo not shown) [Compound 292] the figure was 1000 to 10000 nM. Consider `O=C(NC1CCOCC1)c1cccc(NCC(O)CN2CCc3ccccc3C2)c1` (stereo not shown) [Compound 79], for which the IC50 was 10000 to 40000 nM.
